According to patent US20040132803A1, “Agent for the treatment of overactive bladder” (priority 2003, published 2004):

What was measured:
[1] = tested on: slowly-inactivating A-type K^+ currents; assay: Voltage-clamp outward K^+ currents at HP −90 mV in unidentified DRG neurons; type: cell-based, rat; conditions: for K^+ current at HP: −90 mV, relative value (before compound = 1): unidentified DRG neurons
Method: Experiments were performed on adult female Sprague Dawley rats. First and second series of the experiments were performed, respectively, in unidentified DRG neurons and a specific population of DRG neurons innervating the urinary bladder. The population of DRG neurons that innervate the urinary bladder were labeled by retrograde axonal transport of the fluorescent dye, Fast Blue (4% w/v) (Polyloy, Gross Umstadt, Germany), injected into the wall of the bladder in halothane-anesthetized animals 7 days before the dissociation. The dye was injected with a 28 gauge needle at three to six sites on the dorsal surface of the organ (5-6 μL per site, total volume of 20-30 μL). Each injection site was washed with saline to minimize contamination of adjacent organs with the dye.
(§1) Freshly dissociated neurons from DRG were prepared from halothane-anesthetized animals. L6 and S1 DRG were dissected from animals and then dissociated in a shaking bath for 25 minutes at 35° C. with 5 mL DMEM (Sigma) containing 0.3 mg/mL trypsin (Type 3, Sigma), 1 mg/mL collagenase (Type 1, Sigma), and 0.1 mg/mL deoxyribonuclease (Type 4, Sigma). Trypsin inhibitor (Type 2a, Sigma) was then added thereto to neutralize the activity of trypsin. Individual DRG cell bodies were isolated by trituration and then plated on a poly-L-lysine-coated 35 mm Petri dishes.
(§2) Dye-labeled primary afferent neurons that innervate the urinary bladder were identified using an inverted phase-contrast microscope (Nikon, Tokyo, Japan) with fluorescent attachments (UV-1A filter; excitation wavelength, 365 nm). Gigaohm-seal whole-cell recordings were performed at room temperature (20-22° C.) on each labeled neuron in a culture dish that usually contained three to seven labeled cells among a few hundred unlabeled neurons. The internal solution contained (in mmol/L): KCl 140, CaCl2 1, MgCl2 2, EGTA 11, HEPES 10, Mg-ATP 2, and Tris-GTP 0.4 adjusted to pH 7.4 with KOH. Patch electrodes had resistances of 1-4 MΩ when filled with the internal solution. Neurons were superfused at a flow rate of 1.5 mL/minutes with an external solution containing (in mmol/L): NaCl 150, KCl 5, CaCl2 2.5, MgCl2 1, HEPES 10, and D-glucose 10, adjusted to pH 7.4 with NaOH. All recordings were made with an Axopatch-1D patch-clamp amplifier (Axon Instruments, Foster City, Calif.), and data were acquired and analyzed by PCLAMP software (Axon Instruments).
In voltage-clamp recordings, outward K^+ currents and inward Na^+ currents were measured. For the isolation of K^+ currents, the external solution was changed to one containing (in mmol/L): choline-Cl 150, KOH 5, CaCl2 0.03, HEPES 10, Mg(OH)2 3, and D-glucose 10, adjusted to pH 7.4 with HCl.
In first series of experiments using unidentified DRG neurons, outward K^+ currents were evoked by voltage steps to +60 mV, 800 ms long from a holding potentials of −90 mV, this was followed by a 1-second conditioning prepulse to −20 mV followed by a second pulse to +60 mV, identical to the first in the sequence. In the second series of experiments using Fast Blue-labeled bladder afferent neurons, slowly-inactivating A-type K^+ currents were isolated by. subtraction of outward K^+ currents activated from a holding potential of −40 mV (on the condition of inactivation of the majority of slowly-inactivating A-type K^+ currents) from those activated from a holding potential of −120 mV (on the condition of full activation of slowly-inactivating A-type K^+ currents). A compound was added cumulatively, starting with a lower concentration. Currents were measured at the maximum (peak) and normalized to control (before addition of the compound).

DRG cells = assay: Current-clamp membrane potential in DRG cells; type: cell-based, rat; conditions: for Membrane potential (mV): current clamp
Method: Experiments were performed on adult female Sprague Dawley rats. A population of unidentified DRG cells and a population of DRG neurons that innervate the urinary bladder were labeled by retrograde axonal transport of the fluorescent dye, Fast Blue (4% w/v) (Polyloy, Gross Umstadt, Germany), injected into the wall of the bladder in halothane-anesthetized animals 7 days before the dissociation. The dye was injected with a 28 gauge needle at three to six sites on the dorsal surface of the organ (5-6 μL per site, total volume of 20-30 μL). Each injection site was washed with saline to minimize contamination of adjacent organs with the dye.
as §1
as §2, with “performed within 6-8 hours after cell dissociation” for “performed”, “M Ω” for “MΩ”
In current-clamp recordings, membrane potential of DRG cells were measured before and after compound applications. The membrane potentials were normalized to control (before addition of the compound).

With `C[C@](O)(C(=O)Nc1cccc2c1C(=O)c1sccc1CS2(=O)=O)C(F)(F)F` [Compound 1, (S)-(+)-N-(5,5-dioxido-10-oxo-4,10-dihydrothieno[3,2-c][l]benzothiepin-9-yl)-3,3,3-trifluoro-2-hydroxy-2-methylpropanamide] the “K^+ current at HP: −90 mV, relative value” ([1]; 1.0 × 10^−5 mol/L, in the presence of 5 μmol/L verapamil) was 0.99 ± 0.02, the “K^+ current at HP: −90 mV, relative value” ([1]; 1.0 × 10^−5 mol/L, in the presence of 20 mmol/L tetraethylammonium) was 1.19 ± 0.01 and the “K^+ current at HP: −90 mV, relative value (before compound = 1)” value ([1]; 1.0 × 10^−5 mol/L) was 0.96 ± 0.05. The “K^+ current at HP: −90 mV, relative value” ([1]; 1.0 × 10^−6 mol/L, in the presence of 5 μmol/L verapamil) was 1.11 ± 0.03, the “K^+ current at HP: −90 mV, relative value” ([1]; 1.0 × 10^−6 mol/L, in the presence of 20 mmol/L tetraethylammonium) was 1.19 ± 0.05 and the “K^+ current at HP: −90 mV, relative value (before compound = 1)” value ([1]; 1.0 × 10^−6 mol/L) was 1.06 ± 0.02. For the same molecule, the “K^+ current at HP: −90 mV, relative value” ([1]; 1.0 × 10^−7 mol/L, in the presence of 5 μmol/L verapamil) was 1.13 ± 0.02, the “K^+ current at HP: −90 mV, relative value” ([1]; 1.0 × 10^−7 mol/L, in the presence of 20 mmol/L tetraethylammonium) was 1.10 ± 0.01 and the “K^+ current at HP: −90 mV, relative value (before compound = 1)” value ([1]; 1.0 × 10^−7 mol/L) was 1.12 ± 0.03. The “K^+ current at HP: −90 mV, relative value (before compound = 1)” value ([1]; 1.0 × 10^−8 mol/L) was 0.99 ± 0.08, the “K^+ current at HP: −90 mV, relative value (before compound = 1)” value ([1]; 2.5 × 10^−8 mol/L) was 1.07 ± 0.03 and the “K^+ current at HP: −90 mV, relative value” ([1]; 5.0 × 10^−4 mol/L, in the presence of 5 μmol/L verapamil) was 0.61 ± 0.05. The “K^+ current at HP: −90 mV, relative value” ([1]; 5.0 × 10^−4 mol/L, in the presence of 20 mmol/L tetraethylammonium) was 0.29 ± 0.02, the “K^+ current at HP: −90 mV, relative value” ([1]; 5.0 × 10^−4 mol/L, in the presence of 60 mmol/L tetraethylammonium) was 0.56 ± 0.05 and the “K^+ current at HP: −90 mV, relative value” ([1]; 5.0 × 10^−5 mol/L, in the presence of 5 μmol/L verapamil) was 0.94 ± 0.02. The “K^+ current at HP: −90 mV, relative value” ([1]; 5.0 × 10^−5 mol/L, in the presence of 20 mmol/L tetraethylammonium) was 0.91 ± 0.04, the “K^+ current at HP: −90 mV, relative value” ([1]; 5.0 × 10^−5 mol/L, in the presence of 60 mmol/L tetraethylammonium) was 1.15 ± 0.08 and the “K^+ current at HP: −90 mV, relative value (before compound = 1)” value ([1]; 5.0 × 10^−5 mol/L) was 0.83 ± 0.09. For the same molecule, the “K^+ current at HP: −90 mV, relative value” ([1]; 5.0 × 10^−6 mol/L, in the presence of 5 μmol/L verapamil) was 1.02 ± 0.03, the “K^+ current at HP: −90 mV, relative value” ([1]; 5.0 × 10^−6 mol/L, in the presence of 20 mmol/L tetraethylammonium) was 1.16 ± 0.03 and the “K^+ current at HP: −90 mV, relative value” ([1]; 5.0 × 10^−6 mol/L, in the presence of 60 mmol/L tetraethylammonium) was 1.14 ± 0.05. For the same molecule, the “K^+ current at HP: −90 mV, relative value” ([1]; 5.0 × 10^−7 mol/L, in the presence of 5 μmol/L verapamil) was 1.17 ± 0.03, the “K^+ current at HP: −90 mV, relative value” ([1]; 5.0 × 10^−7 mol/L, in the presence of 20 mmol/L tetraethylammonium) was 1.15 ± 0.04 and the “K^+ current at HP: −90 mV, relative value” ([1]; 5.0 × 10^−7 mol/L, in the presence of 60 mmol/L tetraethylammonium) was 1.11 ± 0.03. The “K^+ current at HP: −90 mV, relative value (before compound = 1)” value ([1]; 5.0 × 10^−7 mol/L) was 1.15 ± 0.03, the “K^+ current at HP: −90 mV, relative value” ([1]; 5.0 × 10^−8 mol/L, in the presence of 5 μmol/L verapamil) was 1.03 ± 0.02 and the “K^+ current at HP: −90 mV, relative value” ([1]; 5.0 × 10^−8 mol/L, in the presence of 20 mmol/L tetraethylammonium) was 1.08 ± 0.02. For the same molecule, the “K^+ current at HP: −90 mV, relative value” ([1]; 5.0 × 10^−8 mol/L, in the presence of 60 mmol/L tetraethylammonium) was 1.08 ± 0.02, the “K^+ current at HP: −90 mV, relative value (before compound = 1)” value ([1]; 5.0 × 10^−8 mol/L) was 1.07 ± 0.02 and the “K^+ current at HP: −90 mV, relative value” ([1]; 5.0 × 10^−9 mol/L, in the presence of 20 mmol/L tetraethylammonium) was 1.02 ± 0.02. The “K^+ current at HP: −90 mV, relative value (before compound = 1)” value ([1]; 5.0 × 10^−9 mol/L) was 1.01 ± 0.03, the “peak compound concentration for increase of slowly-inactivating A-type K^+ currents” value ([1]; unidentified DRG cells, HP −90 mV) was 1e-07 to 5e-07 mol/L and the “effect on membrane potential” value (DRG cells) was “hyperpolarization”. The “Membrane potential (mV)” value (DRG cells; 1.0 × 10^−6 mol/L) was −53.67 ± 0.74 mV, the “Membrane potential (mV)” value (DRG cells; 1.0 × 10^−7 mol/L) was −57.17 ± 0.53 mV and the “Membrane potential (mV)” value (DRG cells; 1.0 × 10^−8 mol/L) was −49.80 ± 0.65 mV. For the same molecule, the “Membrane potential (mV)” value (DRG cells; 1.0 × 10^−9 mol/L) was −48.10 ± 0.48 mV, the “Membrane potential (mV)” value (DRG cells; 5.0 × 10^−4 mol/L) was −42.67 ± 1.46 mV and the “Membrane potential (mV)” value (DRG cells; 5.0 × 10^−5 mol/L) was −48.50 ± 1.28 mV. The “Membrane potential (mV)” value (DRG cells; 5.0 × 10^−6 mol/L) was −50.50 ± 0.88 mV.
